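Compound exposure: 48 hours, 5 concentrations, 96-well plates. Definition used: TGI = concentration required for complete inhibition of growth.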
Key:
Experiment in all cases: NCI anticancer screen, dose series, 48 h
TK-10 renal = tested on: TK-10 renal
EKVX NSCLC = tested on: EKVX NSCLC
SN12C renal = tested on: SN12C renal
OVCAR-3 ovarian = tested on: OVCAR-3 ovarian
PC-3 prostate = tested on: PC-3 prostate
OVCAR-8 ovarian = tested on: OVCAR-8 ovarian
A498 renal = tested on: A498 renal
LOX IMVI melanoma = tested on: LOX IMVI melanoma
MCF7 breast = tested on: MCF7 breast
HT29 colon = tested on: HT29 colon
RXF 393 renal = tested on: RXF 393 renal
MDA-MB-231 breast = tested on: MDA-MB-231 breast
U251 CNS = tested on: U251 CNS
NCI-H226 lung = tested on: NCI-H226 lung
HCT-116 colon = tested on: HCT-116 colon
NCI/ADR-RES ovarian = tested on: NCI/ADR-RES ovarian
M14 melanoma = tested on: M14 melanoma
HS 578T breast = tested on: HS 578T breast
SF-268 CNS = tested on: SF-268 CNS
A549 NSCLC = tested on: A549 NSCLC
RPMI-8226 leukemia = tested on: RPMI-8226 leukemia
MDA-MB-435 = tested on: MDA-MB-435
HOP-92 NSCLC = tested on: HOP-92 NSCLC
MOLT-4 leukemia = tested on: MOLT-4 leukemia
HCT-15 colon = tested on: HCT-15 colon
SK-OV-3 ovarian = tested on: SK-OV-3 ovarian
OVCAR-4 ovarian = tested on: OVCAR-4 ovarian
SK-MEL-28 melanoma = tested on: SK-MEL-28 melanoma
SNB-75 CNS = tested on: SNB-75 CNS
HL-60(TB) leukemia = tested on: HL-60(TB) leukemia
IGROV1 ovarian = tested on: IGROV1 ovarian
SF-295 CNS = tested on: SF-295 CNS
CAKI-1 renal = tested on: CAKI-1 renal
T-47D breast = tested on: T-47D breast
CCRF-CEM leukemia = tested on: CCRF-CEM leukemia
UACC-257 melanoma = tested on: UACC-257 melanoma
SK-MEL-5 melanoma = tested on: SK-MEL-5 melanoma
NCI-H522 lung = tested on: NCI-H522 lung
HOP-62 NSCLC = tested on: HOP-62 NSCLC
UO-31 renal = tested on: UO-31 renal
SK-MEL-2 melanoma = tested on: SK-MEL-2 melanoma
OVCAR-5 ovarian = tested on: OVCAR-5 ovarian
HCC-2998 colon = tested on: HCC-2998 colon
NCI-H23 lung = tested on: NCI-H23 lung
786-0 renal = tested on: 786-0 renal
ACHN renal = tested on: ACHN renal
UACC-62 melanoma = tested on: UACC-62 melanoma
MALME-3M melanoma = tested on: MALME-3M melanoma
SR leukemia = tested on: SR leukemia
BT-549 breast = tested on: BT-549 breast
DU-145 prostate = tested on: DU-145 prostate
SNB-19 CNS = tested on: SNB-19 CNS
NCI-H460 lung = tested on: NCI-H460 lung
SW-620 colon = tested on: SW-620 colon
KM12 colon = tested on: KM12 colon
K-562 leukemia = tested on: K-562 leukemia

Cn1c2ccccc2n2c3ncccc3c(=O)c(C#N)c12 was tested, and the TGI (TK-10 renal) was > 100 µM, the TGI (EKVX NSCLC) was > 100 µM and the TGI (SN12C renal) was > 100 µM. For the same compound, the TGI (OVCAR-3 ovarian) was > 100 µM, the TGI (PC-3 prostate) was > 100 µM and the TGI (OVCAR-8 ovarian) was 23.5 µM. For the same compound, the TGI (A498 renal) was 34 µM, the TGI (LOX IMVI melanoma) was 23.1 µM and the TGI (MCF7 breast) was 21.1 µM. The TGI (HT29 colon) was > 100 µM, the TGI (RXF 393 renal) was > 56.4 µM and the TGI (MDA-MB-231 breast) was 57.1 µM. For the same compound, the TGI (U251 CNS) was 34 µM, the TGI (NCI-H226 lung) was 4.65 µM and the TGI (HCT-116 colon) was > 59 µM. For the same compound, the TGI (NCI/ADR-RES ovarian) was > 100 µM, the TGI (M14 melanoma) was > 100 µM and the TGI (HS 578T breast) was > 94.1 µM. The TGI (SF-268 CNS) was > 100 µM, the TGI (A549 NSCLC) was > 36.7 µM and the TGI (RPMI-8226 leukemia) was > 100 µM. The TGI (MDA-MB-435) was > 100 µM, the TGI (HOP-92 NSCLC) was > 100 µM and the TGI (MOLT-4 leukemia) was > 100 µM. For the same compound, the TGI (HCT-15 colon) was > 53.8 µM, the TGI (SK-OV-3 ovarian) was 98.1 µM and the TGI (OVCAR-4 ovarian) was > 100 µM. The TGI (SK-MEL-28 melanoma) was > 100 µM, the TGI (SNB-75 CNS) was > 79.9 µM and the TGI (HL-60(TB) leukemia) was > 100 µM. The TGI (IGROV1 ovarian) was > 100 µM, the TGI (SF-295 CNS) was 48.4 µM and the TGI (CAKI-1 renal) was > 77.3 µM. For the same compound, the TGI (T-47D breast) was > 100 µM, the TGI (CCRF-CEM leukemia) was > 100 µM and the TGI (UACC-257 melanoma) was > 100 µM. For the same compound, the TGI (SK-MEL-5 melanoma) was 21.5 µM, the TGI (NCI-H522 lung) was 35.4 µM and the TGI (HOP-62 NSCLC) was 29.5 µM. The TGI (UO-31 renal) was 43.1 µM, the TGI (SK-MEL-2 melanoma) was 97.4 µM and the TGI (OVCAR-5 ovarian) was > 100 µM. For the same compound, the TGI (HCC-2998 colon) was > 100 µM, the TGI (NCI-H23 lung) was 36.6 µM and the TGI (786-0 renal) was > 81 µM. The TGI (ACHN renal) was 11.7 µM, the TGI (UACC-62 melanoma) was 28.4 µM and the TGI (MALME-3M melanoma) was > 100 µM. The TGI (SR leukemia) was > 100 µM, the TGI (BT-549 breast) was 57.3 µM and the TGI (DU-145 prostate) was 24.7 µM. For the same compound, the TGI (SNB-19 CNS) was > 62.5 µM, the TGI (NCI-H460 lung) was > 40.7 µM and the TGI (SW-620 colon) was > 100 µM. The TGI (KM12 colon) was > 100 µM and the TGI (K-562 leukemia) was > 100 µM.
